According to patent publication US4985445A, “Cancer cell metastasis inhibitors and novel compounds” (Meiji Seika Kaisha, Ltd., priority 1988, dated 1991):
Where two headings read alike, the source gives them in different places.

How the values were obtained:
[1] = Acute toxicity (LD50) by mice; conditions: mouse, in vivo, sc
[2] = test system: murine tumor cell line L 929; test: Cytotoxic activity against L 929 (growth observed with inverted microscope, 4 days); assay type: cell-based; conditions: for Growth: 4 days;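 for growth: + means growth and ± means marked inhibition and - means cell death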
Procedure: The B16 subline of high pulmonary metastatic potential and murine tumor cell line L 929 were cultured in DME medium supplemented with 10% bovine fetal serum at 37° C. in the presence of 5% CO2.
The B16 subline of high pulmanary metastatic potential and murine tumor cell line L 929 were cultured in DME medium supplemented with 10% bovine fetal serum at 37° C. in the presence of 5% CO2.

[3] = test system: B16 subline of high pulmonary metastatic potential; test: Inhibition of pulmonary metastasis of B16 subline pretreated with compound and injected i.v. into BDF1 mice; assay type: in vivo, murine; mouse BDF1
Procedure: Based on the method described priviously (Method in Cancer Research, 15, 399-439, 1978), a subline of high metastatic potential (high pulmonary colonization) was selected from murine melanoma B16 by repeating the i.v. transplantation of the tumor cells in BDF1 mice and the isolation of pulmonary metastatic clones.
Evaluation of the metastasis inhibiting activity was performed based on the method described previously (Proc. Natl Acad. Sci. USA, 83, 1752-1756, 1986, Cancer Research, 46, 858-862, 1986).
Firstly, the B16 subline of high metastatic potential was inoculated into Dulbecco's ME medium (DME medium) supplemented with 10% bovine fetal serum and the compound represented by general formula (I) described above was added thereto.
The B16 subline of high pulmonary metastatic potential was inoculated into DME medium supplemented with 10% bovine fetal serum and 30, 100 or 300 μg/ml of N (3-phenylpropyl)-1-deoxynojirimycin was added thereto followed by incubation at 37° C. for 3 days in the presence of 5% CO2.
Inhibition of metastasis was examined in a manner similar to Test Example 2 except that N-(3-phenyl-2-propenyl)-1-deoxy-nojirimycin and N-(3-p-chlorophenyl-3-methyl-2-propenyl)-1-deoxynojirimycin were used instead of N-(3-phenylpropyl)-1-deoxynojirimycin in Test Example 2. In this test example, however, 2.5×10^5 cells each of the B16 subline were transplanted to 3 mice for each group.
The B16 subline of high pulmonary metastatic potential was inoculated into DME medium supplemented with 10% bovine fetal serum and 30 μg/ml of N-(4-phenoxy-trans-2-butenyl)-1-deoxynojirimycin was added thereto followed by incubation at 37° C. for 3 days in the presence of 5% CO2. […] The number of colonies of the B16 subline formed on the surface of and in the lung was counted.
Inhibition of metastasis was examined in a manner similar to Test Example 5 except that N-(2-phenoxyethyl)-1-deoxynojirimycin was used instead of N-(4-phenoxy-trans-2-butenyl)-1-deoxynojirimycin in Test Example 5.
The B16 sibline of high pulmonary metastatic potential was inoculated into DME medium supplemented with 10% bovine fetal serum and 10 μg/ml of D-glucaro-δ-lactam calcium salt was added thereto followed by incubation at 37° C. for 3 days in the presence of 5% CO2. […] The number of the colonies formed on the surface of and in the lung was counted.
Inhibition of metastasis was examined in a manner similar to Test Example 8 except that D-glucaro-δ-lactam methyl ester and D-glucaro-δ-lactam ethyl ester were used instead of D-glucaro-δ-lactam calcium salt in Test Example 8.
The B16 subline of high pulmonary metastatic potential was inoculated into DME medium supplemented with 10% bovine fetal serum and 10 μg/ml of 2,6-di-O-(acetylsalicyloyl)-D-gluco-δ-lactam was added thereto followed by incubation at 37° C. for 3 days in the presence of 5% CO2.
The B16 subline of high pulmonary metastatic potential was inoculated into DME medium supplemented with 10% bovine fetal serum and 30 μg/ml of 6-O-triphenylmethyl-D-gluco-δ-lactam was added thereto followed by incubation at 37° C. for 3 days in the presence of 5% CO2.
The B16 subline of high pulmonary metastatic potential was inoculated into DME medium supplemented with 10% bovine fetal serum and 30 μg/ml of 1-deoxynojirimycin was added thereto followed by incubation at 37° C. for 3 days in the presence of 5% CO2.

[4] = test system: B16 subline of high pulmonary metastatic potential; conditions: Table 13, B16 subline, 3 days;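 note: + means growth and ± means marked inhibition and - means cell death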
Procedure: (§1) The B16 subline of high pulmonary metastatic potential and murine tumor cell line L 929 were cultured in DME medium supplemented with 10% bovine fetal serum at 37° C. in the presence of 5% CO2. Then, cells were detached from the Petri dish with trypsin-EDTA solution. The B16 subline and L 929 were suspended in the medium described above in 1×10^4 cells/ml and 1×10^3 cells/ml, respectively. Each suspension, 150 μl, was added to 50 μl of N-(3-phenylpropyl)-1-deoxynojirimycin solution or Adriamycin (control) solution. Incubation was performed for 3 days for the B16 subline and for 4 days for L 929 strain.
as §1, with “of N-(4-phenoxy-trans-2-butenyl)-1-deoxynojirimycin” for “of N-(3-phenylpropyl)-1-deoxynojirimycin”, “days in” for “days for”, “L 929.” for “L 929 strain.”
as §1, with “of D-glucaro-δ-lactam calcium salt” for “of N-(3-phenylpropyl)-1-deoxynojirimycin”, “(control) solutions.” for “(control) solution.”, “days in” for “days for”, “L 929.” for “L 929 strain.”
The B16 subline of high pulmonary metastatic potential and murine tumor cell line L 929 were cultured in DME medium supplemented with 10% bovine fetal serum at 37° C. in the presence of 5% CO2. Then, cells were detached from the Petri dish with trypsin-EDTA solution. The B16 subline and L 929 were suspended in the medium described above in 1×10^4 cells/ml and 1×10^3 cells/ml, respectively. Each suspension, 150 μl, was added to 50 μl of 2,6-di-O-(1-(p-chlorobenzoyl)-5-methoxy-2-methylindole-3-acetyl)-D-gluco-δ-lactam solution or and Adriamycin (control) solutions. Incubation was performed for 3 days in the B16 subline and for 4 days in L 929.
The B16 subline of high pulmanary metastatic potential and murine tumor cell line L 929 were cultured in DME medium supplemented with 10% bovine fetal serum at 37° C. in the presence of 5% CO2. Then, cells were detached from the Petri dish with trypsin-EDTA solution. The B16 subline and L 929 were suspended in the medium described above in 1×10^4 cells/ml and 1×10^3 cells/ml, respectively. Each suspension, 150 μl, was added to 50 μl of 6-O-triphenylmethyl-D-gluco-δ-lactam solution or Adriamycin (control) solutions. Incubation was performed for 3 days in the B16 sibline and for 4 days in L 929.
The B16 subline of high pulmonary metastatic potential was inoculated into DME medium supplemented with 10% bovine fetal serum and 30 μg/ml of 1-deoxynojirimycin was added thereto followed by incubation at 37° C. for 3 days in the presence of 5% CO2. […] Next, the cells were detached from the Petri dish with trypsin-EDTA solution. The cells were suspended in PBS- in 1×10^6 cells/ml as viable cells. This suspension, 0.1 ml, was intravenously injected in the tail vein of the mouse BDF1 (8 week age, male; 1 group, 3 mice). After feeding for 14 days, the mouse was sacrificed to excise the lungs. The number of colonies of the B16 subline on the surface of and in the lungs was counted.

O=C1N[C@H](COC(c2ccccc2)(c2ccccc2)c2ccccc2)[C@@H](O)[C@H](O)[C@H]1O [6-O-Triphenylmethyl-D-gluco-δ-lactam, 6-O-triphenylmethyl-D-gluco-δ-lactam]
LD50 [1]: > 300 mg/kg | Cytotoxicity (in words) ([2]; L 929, even at a concentration as high as 30 μg/ml): did not show marked cytotoxicity | Growth ([2]; Table 13, L 929, 10 μg/ml): + | Growth ([2]; Table 13, L 929, 30 μg/ml): + | Inhibition of metastasis to the lungs (in words) ([3]; B16 subline, BDF1 mice): markedly inhibited | Pulmonary Metastasis (Mean ± Standard Deviation) ([3]; Table 14, 30 μg/ml, 3 mice, None 92 ± 21.3): 17 ± 8.5 no. | Growth ([4]; 3 μg/ml): + | Growth ([4]; 10 μg/ml): + | Growth ([4]; 30 μg/ml): +
